The results in this text go back to patent US8106055B2, “Substituted amide compounds” (Gruenenthal GmbH, priority 2007, dated 2012).

The target of one assay is T1, human μ opiate receptor (Homo sapiens, UniProt P35372).
T1 construct: purchased PerkinElmer Life Sciences, Zaventem, Belgium RB-HOM; host or cells: CHO-K1 cells (membrane preparation)
Nature of the assay: Affinity for the human μ opiate receptor ([3H]-naloxone displacement, CHO-K1 receptor membrane preparation, SPA). Format: binding. Conditions: Table 3, to be read in the same way as Table 1, test concentration 1 μM; for inhibition at 1 µM: 1.5 h, read-out: μ. The essentials:
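SPA, CHO-K1 hμ membranes; 1 nmol/l [3H]-naloxone; Tris-HCl 50 mmol/l + 0.06% BSA; 90 min RT; NSB with 100 μmol/l naloxone; β-counting. Readout: % inhibition of specific binding at 1 μM test compound.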

Assay [1] deals with T2, human bradykinin 1 receptor (B1R) (Homo sapiens, UniProt P46663).
T2 construct: expressed in transfected cells; host or cells: CHO K1 cells
T2 sequence (P46663 1-353): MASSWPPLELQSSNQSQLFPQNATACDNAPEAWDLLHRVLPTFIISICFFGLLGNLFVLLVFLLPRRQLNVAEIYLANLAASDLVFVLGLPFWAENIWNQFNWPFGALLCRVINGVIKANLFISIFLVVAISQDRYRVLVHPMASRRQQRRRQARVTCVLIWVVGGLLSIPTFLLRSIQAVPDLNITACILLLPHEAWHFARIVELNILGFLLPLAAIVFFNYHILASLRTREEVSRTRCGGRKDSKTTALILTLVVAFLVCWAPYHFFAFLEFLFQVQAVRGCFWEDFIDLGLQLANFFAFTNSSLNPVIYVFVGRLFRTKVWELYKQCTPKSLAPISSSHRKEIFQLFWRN
Briefly: Functional investigation on the human bradykinin 1 receptor (B1R), Ca2+ FLIPR assay in CHO K1 hB1R cells. Format: cell-based. Conditions: test substance 10 μM, Ca2+ FLIPR, CHO K1 hB1R cells; for inhibition at 10 µM: CHO-K1, B1R antagonism human, read-out: B1R Ant. h [10 μM] % Inhibition. The essentials:
(§1)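 Peak Ca2+-dependent fluorescence in B1R-transfected CHO K1 cells measures antagonism of an EC80 agonist challenge given 10-20 min after compound. Agonist is Lys-Des-Arg9-bradykinin for human, Des-Arg9-bradykinin for rat receptor.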

In assay [2] the target is T3, bradykinin 1 receptor (B1R) of the rat (Rattus norvegicus, UniProt P97583).
T3 construct: expressed in transfected cells; host or cells: CHO K1 cells
T3 sequence (P97583 1-337): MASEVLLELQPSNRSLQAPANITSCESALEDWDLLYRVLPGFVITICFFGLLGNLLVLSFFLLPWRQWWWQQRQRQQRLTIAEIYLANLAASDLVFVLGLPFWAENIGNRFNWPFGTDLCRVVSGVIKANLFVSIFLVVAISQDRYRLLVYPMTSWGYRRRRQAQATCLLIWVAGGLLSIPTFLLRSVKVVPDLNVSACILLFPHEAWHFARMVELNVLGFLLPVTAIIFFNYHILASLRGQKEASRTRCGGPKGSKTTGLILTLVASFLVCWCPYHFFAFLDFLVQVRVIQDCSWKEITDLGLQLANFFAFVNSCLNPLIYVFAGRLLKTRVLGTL
Briefly: Functional investigation on the rat bradykinin 1 receptor (B1R), Ca2+ FLIPR assay in CHO K1 rB1R cells. Format: cell-based. Conditions: test substance 10 μM, Ca2+ FLIPR, CHO K1 rB1R cells; for inhibition at 10 µM: CHO-K1, B1R antagonism rat, read-out: B1R Ant. r [10 μM] % Inhibition. The essentials: as §1

T1 sequence (P35372 whole entry): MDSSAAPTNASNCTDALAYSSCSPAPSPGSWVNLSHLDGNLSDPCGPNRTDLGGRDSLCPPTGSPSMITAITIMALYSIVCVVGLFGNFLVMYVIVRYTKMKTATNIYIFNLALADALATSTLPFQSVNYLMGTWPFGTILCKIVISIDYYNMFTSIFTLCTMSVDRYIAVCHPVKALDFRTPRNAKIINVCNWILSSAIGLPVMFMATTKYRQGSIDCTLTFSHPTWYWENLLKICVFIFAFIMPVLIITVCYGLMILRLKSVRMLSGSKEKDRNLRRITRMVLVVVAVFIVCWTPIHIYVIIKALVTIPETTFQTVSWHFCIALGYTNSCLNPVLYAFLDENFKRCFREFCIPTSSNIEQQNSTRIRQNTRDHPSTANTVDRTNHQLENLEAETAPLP

For the molecule `CN(CCOCC(=O)NC1CCC(C(c2ccccc2)N2CCOCC2)CC1)S(=O)(=O)c1ccc(Cl)cc1Cl` (stereo not drawn) [Example 680, 2-(2-(2,4-dichloro-N-methylphenylsulfonamido)ethoxy)-N-(4-(morpholino(phenyl)methyl)cyclohexyl)acetamide], the inhibition at 1 µM on human μ opiate receptor was 4%. The inhibition at 10 µM in assay [1] was 21%; in assay [2], 23%.
`COc1cc(C)c(S(=O)(=O)N(C)CCOCC(=O)NC2CCC(C(c3ccccc3)N3CCOCC3)CC2)c(C)c1` (stereo not drawn) [Example 681, 2-(2-(4-methoxy-N,2,6-trimethylphenylsulfonamido)ethoxy)-N-(4-(morpholino(phenyl)methyl)cyclohexyl)acetamide]: at human μ opiate receptor, the inhibition at 1 µM stood at 10%. The inhibition at 10 µM in assay [1] and in assay [2] was 98% in each case.
For the molecule `COc1cc(C)c(S(=O)(=O)N(C)CCOCC(=O)NC2CCC(C(c3ccccc3)N3CCN(C)CC3)CC2)c(C)c1` (stereo not drawn) [Example 682, 2-(2-(4-methoxy-N,2,6-trimethylphenylsulfonamido)ethoxy)-N-(4-((4-methylpiperazin-1-yl)(phenyl)methyl)cyclohexyl)acetamide], the inhibition at 1 µM at human μ opiate receptor came to 36%. Besides, the inhibition at 10 µM in assay [1] worked out at 104%; in assay [2] it was 103%.
With `CN(CCOCC(=O)NC1CCC(C(c2ccccc2)N2CCOCC2)CC1)S(=O)(=O)c1c(Cl)cccc1Cl` (stereo not drawn) [Example 683, 2-(2-(2,6-dichloro-N-methylphenylsulfonamido)ethoxy)-N-(4-(morpholino(phenyl)methyl)cyclohexyl)acetamide], the inhibition at 1 µM at human μ opiate receptor worked out at 5%. The inhibition at 10 µM stood at 32% in assay [1] and 48% in assay [2].
For `CN1CCN(C(c2ccccc2)C2CCC(NC(=O)COCCN(C)S(=O)(=O)c3c(Cl)cccc3Cl)CC2)CC1` (stereo not drawn) [Example 684, 2-(2-(2,6-dichloro-N-methylphenylsulfonamido)ethoxy)-N-(4-((4-methylpiperazin-1-yl)(phenyl)methyl)cyclohexyl)acetamide], in that order: 29%, 95% and 61%.
Regarding `O=C(COC1CCN(S(=O)(=O)c2c(Cl)cc(Cl)cc2Cl)C1)NC1CCC(C(c2ccccc2)N2CCOCC2)CC1` (stereo not drawn) [Example 685, N-(4-(morpholin(phenyl)methyl)cyclohexyl)-2-(1-(2,4,6-trichlorophenylsulfonyl)pyrrolidin-3-yloxy)acetamide], on human μ opiate receptor, the μ turned out to be 3 % inhibition. Moreover, in assay [1] (B1R antagonism human), the “B1R Ant. h [10 μM] % Inhibition” value is 13%. Besides, the “B1R Ant. r [10 μM] % Inhibition” value in assay [2] (B1R antagonism rat) was determined as 18%.
`CN1CCN(C(c2ccccc2)C2CCC(NC(=O)COC3CCN(S(=O)(=O)c4c(Cl)cc(Cl)cc4Cl)C3)CC2)CC1` (stereo not drawn) [Example 686, N-(4-((4-methylpiperazin-1-yl)(phenyl)methyl)cyclohexyl)-2-(1-(2,4,6-trichlorophenylsulfonyl)pyrrolidin-3-yloxy)acetamide]: the inhibition at 1 µM on human μ opiate receptor is 30%. Also, the inhibition at 10 µM in assay [1] turned out to be 80%; in assay [2], 29%.
On the same counts, the results for `COc1cc(C)c(S(=O)(=O)N2CCC(OCC(=O)NC3CCC(C(c4ccccc4)N4CCOCC4)CC3)C2)c(C)c1` (stereo not drawn) [Example 687, 2-(1-(4-methoxy-2,6-dimethylphenylsulfonyl)pyrrolidin-3-yloxy)-N-(4-(morpholino(phenyl)methyl)cyclohexyl)acetamide] are 6%, 48% and 88%.
With `COc1cc(C)c(S(=O)(=O)N2CCC(OCC(=O)NC3CCC(C(c4ccccc4)N4CCN(C)CC4)CC3)C2)c(C)c1` (stereo not drawn) [Example 688, 2-(1-(4-methoxy-2,6-dimethylphenylsulfonyl)pyrrolidin-3-yloxy)-N-(4-((4-methylpiperazin-1-yl)(phenyl)methyl)cyclohexyl)acetamide], the inhibition at 1 µM on human μ opiate receptor worked out at 20%. The inhibition at 10 µM in assay [1] stood at 103%; in assay [2], 94%.
On the same counts, the results for `CN(CCOCC(=O)NC1CCC(C(c2ccccc2)N2CCOCC2)CC1)S(=O)(=O)c1c(Cl)cc(C(F)(F)F)cc1Cl` (stereo not drawn) [Example 689, 2-(2-(2,6-dichloro-N-methyl-4-(trifluoromethyl)phenylsulfonamido)ethoxy)-N-(4-(morpholino(phenyl)methyl)cyclohexyl)acetamide] are 6%, 22% and 39%.
For `CN1CCN(C(c2ccccc2)C2CCC(NC(=O)COCCN(C)S(=O)(=O)c3c(Cl)cc(C(F)(F)F)cc3Cl)CC2)CC1` (stereo not drawn) [Example 690, 2-(2-(2,6-dichloro-N-methyl-4-(trifluoromethyl)phenylsulfonamido)ethoxy)-N-(4-((4-methylpiperazin-1-yl)(phenyl)methyl)cyclohexyl)acetamide], in that order: 26%, 54% and 30%.
Consider `O=C(COC1CCCN(S(=O)(=O)c2c(Cl)cc(Cl)cc2Cl)C1)NC1CCC(C(c2ccccc2)N2CCOCC2)CC1` (stereo not drawn) [Example 691, N-(4-(morpholino(phenyl)methyl)cyclohexyl)-2-(1-(2,4,6-trichlorophenylsulfonyl)piperidin-3-yloxy)acetamide], for which, at human μ opiate receptor, the inhibition at 1 µM is 58%. In addition, the inhibition at 10 µM in assay [1] came out at 10%; in assay [2] it was 6%.
On the same counts, the results for `CN1CCN(C(c2ccccc2)C2CCC(NC(=O)COC3CCCN(S(=O)(=O)c4c(Cl)cc(Cl)cc4Cl)C3)CC2)CC1` (stereo not drawn) [Example 692, N-(4-((4-methylpiperazin-1-yl)(phenyl)methyl)cyclohexyl)-2-(1-(2,4,6-trichlorophenylsulfonyl)piperidin-3-yloxy)acetamide] are 65%, 78% and 41%.
On the same counts, the results for `COc1cc(C)c(S(=O)(=O)N2CCCC(OCC(=O)NC3CCC(C(c4ccccc4)N4CCOCC4)CC3)C2)c(C)c1` (stereo not drawn) [Example 693, 2-(1-(4-methoxy-2,6-dimethylphenylsulfonyl)piperidin-3-yloxy)-N-(4-(morpholino(phenyl)methyl)cyclohexyl)acetamide] are 9%, 26% and 50%.
`COc1cc(C)c(S(=O)(=O)N2CCCC2COCC(=O)NC2CCC(C(c3ccccc3)N3CCOCC3)CC2)c(C)c1` (stereo not drawn) [Example 694, 2-((1-(4-methoxy-2,6-dimethylphenylsulfonyl)pyrrolidin-2-yl)methoxy)-N-(4-(morpholino(phenyl)methyl)cyclohexyl)acetamide]: the inhibition at 1 µM on human μ opiate receptor was 10%. Moreover, the inhibition at 10 µM was 54% in assay [1] and 104% in assay [2].
As for `COc1cc(C)c(S(=O)(=O)N2CCCC2COCC(=O)NC2CCC(C(c3ccccc3)N3CCN(C)CC3)CC2)c(C)c1` (stereo not drawn) [Example 695, 2-((1-(4-methoxy-2,6-dimethylphenylsulfonyl)pyrrolidin-2-yl)methoxy)-N-(4-((4-methylpiperazin-1-yl)(phenyl)methyl)cyclohexyl)acetamide], the inhibition at 1 µM on human μ opiate receptor came to 27%. Further, the inhibition at 10 µM in assay [1] and in assay [2] was 103% throughout.
As for `O=C(COCC1CCCN1S(=O)(=O)c1c(Cl)cc(Cl)cc1Cl)NC1CCC(C(CCc2ccccc2)N2CCOCC2)CC1` (stereo not drawn) [Example 696, N-(4-(1-morpholino-3-phenylpropyl)cyclohexyl)-2-((1-(2,4,6-trichlorophenylsulfonyl)pyrrolidin-2-yl)methoxy)acetamide], at human μ opiate receptor, the inhibition at 1 µM is 21%. Further, the inhibition at 10 µM in assay [1] came to 43%; in assay [2], 91%.
